Data reported in US4464385A, “Treatment of diabetic complications with hydantoins” (Alcon Laboratories, Inc., priority 1982, dated 1984).

Test system: membrane bound cytochrome containing oxidoreductase enzymes
Assay: In vivo conversion of the methylthio group to methylsulfinyl
Settings: enzymes common to liver, kidney and lung

Question: “dl-spiro-(6-methylthio-chroman-4,4'-imidazolidine)-2',5'-dione” was tested. Which “conversion of methylthio group to methylsulfinyl derivative” value did it give?
Answer: Its value is “converted to the methylsulfinyl derivative”.
